The values that follow come from patent publication US20250367154A1, “FORMULATIONS FOR PROMOTING HYDRATION AND METHODS OF USE THEREOF” (UNIVERSITY OF FLORIDA RESEARCH FOUNDATION, INCORPORATED, priority 2020, published 2025).

“Also recorded” adds a separate entry of the source.

For the assay, the system named is Small intestinal mucosal tissues (ileum and jejunum). Nature of the assay: Ussing chamber sodium flux (net Na absorption, 22Na). Also noted: species or system Swiss mice. The conditions noted are these: single free amino acid in solution, FIG. 4. As for the experimental part: Sodium (Na) Absorption Studies: measure net fluid and electrolyte absorption, wherein absorptive processes occur predominantly in the tip of the villi and secretory processes occur in the crypt. Na absorption studies were performed on certain of the amino acids present in 6AA-Hyd. […] Small intestinal mucosal tissues (ileum and jejunum) from 8-week old male Swiss mice were mounted in Ussing chambers containing isotonic Ringer solution, that was bubbled with 95% O2 and 5% CO2 and maintained at 37° C. throughout the experiment. After the tissues were allowed to stabilize, the conductance (G; expressed as mS/cm2) was recorded, and intestinal tissues were paired based on similar conductance. Sodium radioisotope (22Na) was added to either the basolateral or apical side of each tissue pair (Hot). Ringer samples were taken every 15 minutes from the contralateral sides (Cold). Sample 22Na activity was analyzed using a gamma counter, and unidirectional net sodium flux (Jnet; μeq·cm2·h−1) was calculated. [formula] [CPM=count per minute, CPM1=previous sample, CPM2=following sample; Blank=no 22Na added; 9/10=dilution factor for each sample (0.5 mL to 5 mL); 5=chamber volume (5 mL); 4=time factor (15 min to 60 min); 140=sodium concentration; Hot CPM=“Hot” sample activity; Cold CPM=“Cold” sample activity; 10=volume factor for Hot sample (0.1 mL to 1 mL); 0.3=intestinal surface area (cm2)]

In the case of `N[C@@H](CO)C(=O)O` [serine], the “net sodium (Na) absorption relative to control solution” value is on record as “increase net Na absorption relative to a control; also recorded: significantly higher than that of control solution”.

On to `N[C@@H](CC(=O)O)C(=O)O` [aspartic acid], for which the “net sodium (Na) absorption relative to control solution” value is “increase net Na absorption relative to a control; also recorded: significantly higher than that of control solution”.

With `CC(C)[C@H](N)C(=O)O` [valine], the “net sodium (Na) absorption relative to control solution” value is listed as “increase net Na absorption relative to a control; also recorded: significantly higher than that of control solution”.
